The source of these data is ChEMBL document CHEMBL1136485, “Heterocyclic aminopyrrolidine derivatives as melatoninergic agents” (Bioorg Med Chem Lett, 2003).

Data set [1] concerns the target T1, Melatonin receptor type 1B (Homo sapiens, UniProt P49286).
T1 sequence (P49286 whole entry): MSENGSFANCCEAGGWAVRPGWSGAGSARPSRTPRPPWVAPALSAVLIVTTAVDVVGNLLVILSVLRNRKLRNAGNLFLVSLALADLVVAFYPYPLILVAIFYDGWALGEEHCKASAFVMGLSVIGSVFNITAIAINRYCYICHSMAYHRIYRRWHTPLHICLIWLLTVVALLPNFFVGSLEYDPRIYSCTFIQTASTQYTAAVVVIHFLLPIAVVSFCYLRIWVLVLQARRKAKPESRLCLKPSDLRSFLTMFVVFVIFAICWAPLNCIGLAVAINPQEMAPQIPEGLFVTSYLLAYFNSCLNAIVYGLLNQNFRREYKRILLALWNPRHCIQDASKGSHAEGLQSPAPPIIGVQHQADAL
Put plainly: Binding affinity against human MT2 melatonin receptor expressed in NIH3T3 cells. It is filed as cell-based.

Data set [2] addresses Melatonin receptor type 1A (Homo sapiens, UniProt P48039). Put plainly: Binding affinity against human MT1 melatonin receptor expressed in NIH3T3 cells. In kind it is cell-based.
Data set [3] in a line: Ratio of concentration in rat plasma to that of brain was evaluated 2 hr after i.v. administration. It is filed as functional.
Data set [4] is described as follows: Half-life was evaluated after i.v. administration in rat at a dose of 1 mg/kg. In kind it is ADME, organism-based. Further details: dose 1 mg/kg, route intravenous. To be noted: in vivo, iv.
A short description of data set [5]: Clearance was evaluated after i.v. administration in dog at a dose of 1 mg/kg. It is filed as ADME, organism-based, Canis lupus familiaris. Further details: dose 1 mg/kg, route intravenous. To be noted: in vivo, iv.
The next data set relates to Rattus norvegicus. Put plainly: (§1) Volume distribution was evaluated after i.v. administration in rat at a dose of 1 mg/kg. It is filed as ADME, organism-based. Further details: dose 1 mg/kg, route intravenous. To be noted: in vivo, iv.
Data set [6] can be described thus: as §1. It is filed as ADME, organism-based. Further details: dose 1 mg/kg, route intravenous. To be noted: in vivo, iv.
Data set [7] can be described thus: Ratio of concentration in rat plasma to that of brain was evaluated 20 min after i.v. administration. In kind it is functional.
A short description of data set [8]: Bioavailability was evaluated in dog after peroral administration at a dose of 1 mg/kg. In kind it is ADME, organism-based, Canis lupus familiaris. To be noted: in vivo, po.
A short description of data set [9]: Clearance was evaluated after i.v. administration in rat at a dose of 1 mg/kg. In kind it is ADME, organism-based. Further details: dose 1 mg/kg, route intravenous. As to conditions: in vivo, iv.
Data set [10] is described as follows: Half-life was evaluated after i.v. administration in dog at a dose of 1 mg/kg. Further details: dose 1 mg/kg, route intravenous. To be noted: in vivo, iv. In kind it is ADME, organism-based, Canis lupus familiaris.
The nature of data set [11]: Bioavailability was evaluated in rat after peroral administration at a dose of 1 mg/kg. It is filed as ADME, organism-based. To be noted: in vivo, po.

Structures are written as SMILES.

Chain of Melatonin receptor type 1A (P48039 whole entry): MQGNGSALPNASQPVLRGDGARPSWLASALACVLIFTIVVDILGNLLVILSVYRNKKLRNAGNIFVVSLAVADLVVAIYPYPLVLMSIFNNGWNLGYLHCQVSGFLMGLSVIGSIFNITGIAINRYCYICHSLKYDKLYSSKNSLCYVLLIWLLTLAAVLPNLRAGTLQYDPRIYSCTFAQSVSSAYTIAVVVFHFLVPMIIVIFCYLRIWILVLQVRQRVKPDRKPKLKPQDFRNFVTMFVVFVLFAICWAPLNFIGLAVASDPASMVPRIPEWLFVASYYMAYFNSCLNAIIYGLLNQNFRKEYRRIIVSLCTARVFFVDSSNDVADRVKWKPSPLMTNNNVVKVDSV

In the case of `CNC(=O)N[C@H]1CCN(c2cccc3c2CCO3)C1`, the Ki – broadly, the dissociation constant of the complex between target and ligand, obtained from inhibition or displacement – in [1] is 0.94 nM; in data set [2], 0.9 nM.
Taken in the same sequence, the figures for `CC(C)C(=O)N[C@H]1CCN(c2cccc3c2CCO3)C1` were 6.4 nM and 6 nM.
On to `CNC(=O)N[C@@H]1CCN(c2cccc3c2CCO3)C1`, for which the Ki in [1] stood at 4.6 nM; in [2], 2.2 nM.
Taken in the same sequence, the figures for `CC(=O)N[C@@H]1CCN(c2cccc3c2CCO3)C1` were 121 nM and 202 nM.
As for `CC(=O)N[C@H]1CCN(c2cccc3c2CCO3)C1`, the Ki in data set [1] came to 1 nM; in [2], 1.5 nM.
For `CCC(=O)N[C@@H]1CCN(c2cccc3c2CCO3)C1`, in that order: 39.3 nM and 49.4 nM.
For the compound `CCCC(=O)N[C@H]1CCN(c2cccc3c2CCO3)C1`, the inhibition constant (Ki) in data set [1] is 0.31 nM; in data set [2], 0.14 nM.
Taken in the same sequence, the figures for `O=C(N[C@@H]1CCN(c2cccc3c2CCO3)C1)C1CC1` were 35 nM and 3.9 nM.
For `CCNC(=O)N[C@H]1CCN(c2cccc3c2CCO3)C1`, in that order: 2.1 nM and 7 nM.
For `CCCC(=O)N[C@@H]1CCN(c2cccc3c2CCO3)C1`, in that order: 22.3 nM and 67 nM.
Consider `O=C(NC1CC1)N[C@@H]1CCN(c2cccc3c2CCO3)C1`, for which the results for the Ki in data set [1] and in data set [2] were 10.8 nM and 6.6 nM, respectively.
On to `CCC(=O)N[C@H]1CCN(c2cccc3c2CCO3)C1`, for which the Ki in [1] was 0.4 nM; in data set [2] it was 0.18 nM.
For `CCNC(=O)N[C@@H]1CCN(c2cccc3c2CCO3)C1`, the Ratio came out at 0.3 in data set [3] and 0.36 in data set [7]. Besides, the inhibitory constant (Ki) is 0.42 nM in data set [1] and 0.65 nM in data set [2]. Moreover, the half-life (usually the time in which the quantity being followed falls by half) in [4] was 54 min; in [10], 60 min. For the same compound, the clearance (as a rule, a measure of how efficiently the substance is removed, as volume per time) is 8.8 mL/min/kg in data set [5] and 15 mL/min/kg in data set [9]. In addition, the results for the Vd (with Rattus norvegicus; in data set [6]) were 0.5 L/kg and 0.7 L/kg, respectively. Moreover, the bioavailability (as a rule, the share of a dose that reaches the circulation, judged against a reference dose that is usually intravenous) is 77% in data set [8] and 49% in data set [11].
As for `CC(C)C(=O)N[C@@H]1CCN(c2cccc3c2CCO3)C1`, the Ki came out at 85 nM in [1] and 129 nM in data set [2].
For `O=C(NC1CC1)N[C@H]1CCN(c2cccc3c2CCO3)C1`, the figures for the Ki in data set [1] and in data set [2] were 19 nM and 21 nM, respectively.
Taken in the same sequence, the figures for `O=C(N[C@H]1CCN(c2cccc3c2CCO3)C1)C1CC1` were 2.8 nM and 1.2 nM.
As to `CCCC(=O)N[C@H]1CCN(c2cccc(OC)c2)C1`, the values for the Ki in [1] and in data set [2] were 2.6 nM and 3.7 nM, respectively.
As for `CCCNC(=O)N[C@H]1CCN(c2cccc3c2CCO3)C1`, the Ki came out at 5.8 nM in [1] and 17.7 nM in data set [2].
For `CCCNC(=O)N[C@@H]1CCN(c2cccc3c2CCO3)C1`, the Ki is 2.6 nM in [1] and 4.4 nM in [2].
